According to PMC12881674, “Activation of TRPV3 channels in bladder cancer cells stimulates ATP release” (Molecular Pharmacology, 2025):

Target: T1, mouse TRPV3 (Mus musculus, UniProt Q8K424)
T1 construct: expressed in transfected cells; host or cells: HEK293
T1 sequence (Q8K424 1-791): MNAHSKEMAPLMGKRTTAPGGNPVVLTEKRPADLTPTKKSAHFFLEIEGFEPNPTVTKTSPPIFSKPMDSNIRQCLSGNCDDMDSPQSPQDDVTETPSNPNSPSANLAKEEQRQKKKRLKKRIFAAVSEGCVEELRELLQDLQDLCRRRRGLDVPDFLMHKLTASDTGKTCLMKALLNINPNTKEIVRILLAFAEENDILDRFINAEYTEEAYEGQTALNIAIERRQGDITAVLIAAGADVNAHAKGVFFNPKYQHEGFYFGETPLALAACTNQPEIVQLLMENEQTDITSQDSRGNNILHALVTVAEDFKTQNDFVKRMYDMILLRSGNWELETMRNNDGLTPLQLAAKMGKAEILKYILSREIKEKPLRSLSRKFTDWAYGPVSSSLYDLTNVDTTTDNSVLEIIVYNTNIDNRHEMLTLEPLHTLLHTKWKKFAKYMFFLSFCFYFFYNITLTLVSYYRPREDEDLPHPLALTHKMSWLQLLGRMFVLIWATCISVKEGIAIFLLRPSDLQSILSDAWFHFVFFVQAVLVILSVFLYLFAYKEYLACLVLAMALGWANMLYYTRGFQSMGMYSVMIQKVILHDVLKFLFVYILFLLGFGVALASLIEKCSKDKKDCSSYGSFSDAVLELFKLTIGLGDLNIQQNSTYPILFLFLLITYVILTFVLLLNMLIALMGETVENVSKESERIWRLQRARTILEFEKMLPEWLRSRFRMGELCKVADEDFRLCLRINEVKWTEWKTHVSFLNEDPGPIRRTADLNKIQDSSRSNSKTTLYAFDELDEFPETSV
Assay: fluo-4 fluorometric Ca2+ assay, concentration-response, HEK cells expressing mouse TRPV3
Format: cell-based
Conditions: HEK cells expressing mouse TRPV3, fluo-4, room temperature, mean ± SD back-transformed from log space, n=5; read-out: EC50 for mouse TRPV3 activation
From the text: KU-19-19 (DSMZ no. ACC 395), CAL-29 (DSMZ no. ACC 515), 647-V (DSMZ no. ACC 414), RT-4 (DSMZ no. ACC 412), and RT-112 (DSMZ no. ACC 418) bladder cancer cell lines were obtained from the Leibniz Institute DSMZ (German Collection of Microorganisms and Cell Cultures). Human TRPV3 (NM_145068, purchased from OriGene) and mouse TRPV3 (NM_001371006), rat TRPV1, mouse TRPV2, mouse TRPV4, human TRPM2, human TRPM8, and human TRPA1 were stably transfected in HEK293 cells as described before.[27] […]
All fluorometric Ca^2+ assays were performed in HBS buffer at room temperature. […] For the primary compound screening and the generation of concentration-response analyses, a robotic liquid handling station (Freedom Evo 150; Tecan) with a built-in custom-made fluorescence plate imager was used. […] Fluorescence was excited using a 470-nm light-emitting diode, and emitted light was imaged through a 515-nm–long pass filter with a cooled Zyla 5.5 camera (Andor). Fluorescence was recorded and processed under the control of the μ-Manager 2.0 gamma software (https://micro-manager.org.[28]). After recording baseline fluorescence, compounds were dispensed into the wells via the liquid handling device. […] For further analysis, fluorescence signals were calculated for each well, corrected for background intensities and normalized to the initial signals. […]

EC50: 2000 ± 1400 nM
Structure (SMILES): COC(=O)C12CN(Cc3ccccc3)CC1(C(=O)OC)CN(Cc1ccccc1)C2 (stereo not shown) [AV3-1]
